Test results published in US20050042236A1, “Plant extract active as an immunostimulating agent” (priority 2001, published 2005).

System: EA-specific antibodies
Experiment: Production of EA-specific antibodies in mice (Table 2)
Assay type: in vivo
Conditions: EA 50 μg, BaBb/c mice, preparation 20 μg intraperitoneal
Experimental: Erythrocytes of defibrinated sheep blood were washed three times by centrifugation (1000 rpm, 10 m)in 50-fold volume of Hanks' solution, and were then re-suspended in the same solution. Mice were immunised intraperitoneally with 2 ml SE, 200 μg BSA or 50 μg EA. The latter two antigens were injected twice, with a 2-4 week interval between immunisations.
The appropriate amount of APG was dissolved in Hank's solution or in physiological saline, 2-3 hours prior to use. APG was administered to mice in doses of between 1 and 1000 μg. When. mice were immunised with BSA, EA or SE, APG was administered simultaneously with the antigen.
The intensity of the immune response in mice which were immunised with SE was determined according to the number of antibody-forming cells (AFC), detected in the spleen cell suspensions using the method of Jerne and Nordin (1963). AFC were detected 4-5 days following immunisation. Presence of antibodies specific to EA or BSA in blood serum of mice was detected using a solid-phase enzyme-immunoassay (EIA). Isotype of antibodies specific to BSA was determined by EIA using secondary rabbit antibodies specific to mouse IgM, IgG1, IgG2a, IgG2b or IgG3.
The lipopeptide was Pam3Cys-Ser-Lys4 a well-known immunoadjuvant.

## Pam3Cys-Ser-Lys4 [lipopeptide]
  Serum Titer of EA-specific Antibodies: 20,000
